The target in this test is T1, mutant B-RAF (Homo sapiens, UniProt P15056, V600E).
T1 construct: purchased Upstate (Charlottesville, Va.)
Briefly: RAF biochemical assay (MEK-1 phosphorylation, anti-phospho MEK1/2 detection). To be noted: for IC50: read-out: Mutant B-RAF IC50; for inhibition at 10 µM: read-out: Mutant B-RAF % inhibition. In outline:
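Detection is by ELISA: after a 30 min room-temperature reaction, plate-captured GST-MEK-1 is probed with anti-phospho MEK1/2, then an AP-tagged secondary antibody with fluorescent Attophos read-out.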

Where only a bound is given, the exact number is not on record here.

T1 sequence (P15056 whole entry V600E): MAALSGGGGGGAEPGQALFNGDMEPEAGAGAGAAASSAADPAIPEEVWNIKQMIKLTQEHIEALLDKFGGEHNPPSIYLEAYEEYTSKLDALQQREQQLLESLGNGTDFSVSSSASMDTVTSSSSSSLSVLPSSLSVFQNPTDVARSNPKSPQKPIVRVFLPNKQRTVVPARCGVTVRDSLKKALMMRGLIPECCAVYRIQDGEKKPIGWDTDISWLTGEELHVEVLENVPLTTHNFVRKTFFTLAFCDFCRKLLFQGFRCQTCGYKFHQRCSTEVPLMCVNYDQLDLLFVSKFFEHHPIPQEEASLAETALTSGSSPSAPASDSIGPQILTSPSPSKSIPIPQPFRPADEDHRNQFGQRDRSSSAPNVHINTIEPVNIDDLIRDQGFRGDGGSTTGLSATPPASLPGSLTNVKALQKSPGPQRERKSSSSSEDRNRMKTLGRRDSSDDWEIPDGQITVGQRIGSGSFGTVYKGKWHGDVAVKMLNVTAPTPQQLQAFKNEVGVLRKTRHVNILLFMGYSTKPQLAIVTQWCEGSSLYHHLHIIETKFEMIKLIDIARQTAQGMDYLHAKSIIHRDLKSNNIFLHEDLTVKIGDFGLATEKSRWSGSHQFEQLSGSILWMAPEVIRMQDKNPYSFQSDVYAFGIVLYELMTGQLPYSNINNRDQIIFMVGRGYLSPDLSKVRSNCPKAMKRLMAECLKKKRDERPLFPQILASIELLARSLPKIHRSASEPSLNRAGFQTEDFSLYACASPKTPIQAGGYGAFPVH

For `CC(=O)Nc1cccc(-c2nc3sccn3c2-c2ccnc(N[C@@H]3CCCN(S(=O)(=O)c4ccc(Cl)cc4)C3)n2)c1` [Example 123, N-(3-{5-[2-({(3R)-1-[(4-chlorophenyl)sulfonyl]piperidin-3-yl}amino)pyrimidin-4-yl]imidazo[2,1-b][1,3]thiazol-6-yl}phenyl)acetamide], the IC50 was 215 nM.
Same read-out and setting: next, `NCC(=O)Nc1cccc(-c2nc3sccn3c2-c2ccnc(N[C@@H]3CCCN(S(=O)(=O)c4ccc(Cl)cc4)C3)n2)c1` [Example 124, N~1~-(3-{5-[2-({(3R)-1-[(4-chlorophenyl)sulfonyl]piperidin-3-yl}amino)pyrimidin-4-yl]imidazo[2,1-b][1,3]thiazol-6-yl}phenyl)glycinamide]: 2960 nM.
Take `N#Cc1cccc(-c2nc3sccn3c2-c2ccnc(N[C@@H]3CCCNC3)n2)c1` [Example 125, 3-(5-{2-[(3R)-piperidin-3-ylamino]pyrimidin-4-yl}imidazo[2,1-b][1,3]thiazol-6-yl)benzonitrile]: the inhibition at 10 µM amounted to 19%.
In the case of `N#Cc1cccc(-c2nc3sccn3c2-c2ccnc(N[C@@H]3CCCN(S(=O)(=O)c4ccc(Cl)cc4)C3)n2)c1` [Example 126, 3-{5-[2-({(3R)-1-[(4-chlorophenyl)sulfonyl]piperidin-3-yl}amino)pyrimidin-4-yl]imidazo[2,1-b][1,3]thiazol-6-yl}benzonitrile], the IC50 amounted to 710 nM.
On to `O=C(O)c1ccc(-c2nc3sccn3c2-c2ccnc(N[C@@H]3CCCN(S(=O)(=O)c4ccc(Cl)cc4)C3)n2)cc1` [Example 127, 4-{5-[2-({(3R)-1-[(4-chlorophenyl)sulfonyl]piperidin-3-yl}amino)pyrimidin-4-yl]imidazo[2,1-b][1,3]thiazol-6-yl}benzoic acid], for which the IC50 was above 3000 nM.
Regarding `CCOC(=O)c1ccc(-c2nc3sccn3c2-c2ccnc(N[C@@H]3CCCNC3)n2)cc1OCC` [Example 128, ethyl 2-ethoxy-4-(5-{2-[(3R)-piperidin-3-ylamino]pyrimidin-4-yl}imidazo[2,1-b][1,3]thiazol-6-yl)benzoate], the inhibition at 10 µM was found to be 24%.
In the case of `N#Cc1cccc(-c2nc3sccn3c2-c2ccnc(N[C@@H]3CCCN(S(=O)(=O)c4ccc(C(=O)O)cc4)C3)n2)c1` [Example 129], the IC50 was above 3000 nM.
In the case of `CCOC(=O)c1ccc(-c2nc3sccn3c2-c2ccnc(N[C@@H]3CCCN(S(=O)(=O)c4ccc(Cl)cc4)C3)n2)cc1OCC` [Example 130, ethyl 4-{5-[2-({(3R)-1-[(4-chlorophenyl)sulfonyl]piperidin-3-yl}amino)pyrimidin-4-yl]imidazo[2,1-b][1,3]thiazol-6-yl}-2-ethoxybenzoate], the IC50 is 1090 nM.
Consider `O=[N+]([O-])c1ccccc1-c1nc2sccn2c1-c1ccnc(N[C@@H]2CCCN(S(=O)(=O)c3ccc(Cl)cc3)C2)n1` [Example 131, N-{(3R)-1-[(4-chlorophenyl)sulfonyl]piperidin-3-yl}-4-[6-(2-nitrophenyl)imidazo[2,1-b][1,3]thiazol-5-yl]pyrimidin-2-amine], for which the IC50 was 25 nM.
Same read-out and setting: under `Nc1ccccc1-c1nc2sccn2c1-c1ccnc(N[C@@H]2CCCN(S(=O)(=O)c3ccc(Cl)cc3)C2)n1` [Example 132, 4-[6-(2-aminophenyl)imidazo[2,1-b][1,3]thiazol-5-yl]-N-{(3R)-1-[(4-chlorophenyl)sulfonyl]piper-idin-3-yl}pyrimidin-2-amine] stands 444 nM.
Same read-out and setting: under `O=C(O)c1ccc(-c2nc3sccn3c2-c2ccnc(N[C@@H]3CCCN(S(=O)(=O)c4ccc(Cl)cc4)C3)n2)cc1O` [Example 133, 4-{5-[2-({(3R)-1-[(4-chlorophenyl)sulfonyl]piperidin-3-yl}amino)pyrimidin-4-yl]imidazo[2,1-b][1,3]thiazol-6-yl}-2-hydroxybenzoic acid] stands 840 nM.
On the same count and under the same terms, next, `O=S(=O)(c1ccc(Cl)cc1)N1CCC[C@@H](Nc2nccc(-c3c(-c4ccc(O)c(O)c4)nc4sccn34)n2)C1` [Example 134, 4-{5-[2-({(3R)-1-[(4-chlorophenyl)sulfonyl]piperidin-3-yl}amino)pyrimidin-4-yl]imidazo[2,1-b][1,3]thiazol-6-yl}benzene-1,2-diol]: 24 nM; `NCCCC(=O)Nc1ccccc1-c1nc2sccn2c1-c1ccnc(N[C@@H]2CCCN(S(=O)(=O)c3ccc(Cl)cc3)C2)n1` [Example 136, 4-amino-N-(2-{5-[2-({(3R)-1-[(4-chlorophenyl)sulfonyl]piperidin-3-yl}amino)pyrimidin-4-yl]imidazo[2,1-b][1,3]thiazol-6-yl}phenyl)butanamide]: above 3000 nM.
As to `COc1cccc(-c2nc3sccn3c2-c2ccnc(N[C@H]3CCCNC3)n2)c1` [Example 137, 4-[6-(3-methoxyphenyl)imidazo[2,1-b][1,3]thiazol-5-yl]-N-[(3S)-piperidin-3-yl]pyrimidin-2-amine], the inhibition at 10 µM was determined as 42%.
Same read-out and setting: under `NCCC(=O)Nc1ccccc1-c1nc2sccn2c1-c1ccnc(N[C@@H]2CCCN(S(=O)(=O)c3ccc(Cl)cc3)C2)n1` [Example 138, N~1~-(2-{5-[2-({(3R)-1-[(4-chlorophenyl)sulfonyl]piperidin-3-yl}amino)pyrimidin-4-yl]imidazo[2,1-b][1,3]thiazol-6-yl}phenyl)-beta-alaninamide] stands 82%.
The same measure, in the same setting: under `COc1cccc(-c2nc3sccn3c2-c2ccnc(N[C@H]3CCCN(S(=O)(=O)c4ccc(Cl)cc4)C3)n2)c1` [Example 139, N-{(3S)-1-[(4-chlorophenyl)sulfonyl]piperidin-3-yl}-4-[6-(3-methoxyphenyl)imidazo[2,1-b][1,3]thiazol-5-yl]pyrimidin-2-amine] stands 41%.
As for `O=S(=O)(c1ccc(Cl)cc1)N1CCC[C@H](Nc2nccc(-c3c(-c4cccc(O)c4)nc4sccn34)n2)C1` [Example 140, 3-{5-[2-({(3S)-1-[(4-chlorophenyl)sulfonyl]piperidin-3-yl}amino)pyrimidin-4-yl]imidazo[2,1-b][1,3]thiazol-6-yl}phenol], the IC50 is 953 nM.
On the same count and under the same terms, next, `NCC(=O)Nc1ccccc1-c1nc2sccn2c1-c1ccnc(N[C@@H]2CCCN(S(=O)(=O)c3ccc(Cl)cc3)C2)n1` [Example 141, N~1~-(2-{5-[2-({(3R)-1-[(4-chlorophenyl)sulfonyl]piperidin-3-yl}amino)pyrimidin-4-yl]imidazo[2,1-b][1,3]thiazol-6-yl}phenyl)glycinamide]: 814 nM.
In the case of `COc1cccc(-c2nc3sccn3c2-c2ccnc(N[C@@H]3CCCN(S(=O)(=O)c4cccc(OC)c4)C3)n2)c1` [Example 142, 4-[6-(3-methoxyphenyl)imidazo[2,1-b][1,3]thiazol-5-yl]-N-{(3R)-1-[(3-methoxyphenyl)sulfonyl]piperidin-3-yl}pyrimidin-2-amine], the inhibition at 10 µM is 56%.
Consider `O=S(=O)(c1cccc(O)c1)N1CCC[C@@H](Nc2nccc(-c3c(-c4cccc(O)c4)nc4sccn34)n2)C1` [Example 143, 3-{[(3R)-3-({4-[6-(3-hydroxyphenyl)imidazo[2,1-b][1,3]thiazol-5-yl]pyrimidin-2-yl}amino)piperidin-1-yl]sulfonyl}phenol], for which the IC50 is 19 nM.
For the compound `COc1ccc(OC)c(-c2nc3sccn3c2-c2ccnc(N[C@@H]3CCCN(S(=O)(=O)c4ccc(Cl)cc4)C3)n2)c1` [Example 144, N-{(3R)-1-[(4-chlorophenyl)sulfonyl]piperidin-3-yl}-4-[6-(2,5-dimethoxyphenyl)imidazo[2,1-b][1,3]thiazol-5-yl]pyrimidin-2-amine], the inhibition at 10 µM worked out at 69%.
Turning to `O=S(=O)(c1ccc(Cl)cc1)N1CCC[C@@H](Nc2nccc(-c3c(-c4cc(O)ccc4O)nc4sccn34)n2)C1` [Example 145, 2-{5-(2-({(3R)-1-[(4-chlorophenyl)sulfonyl]piperidin-3-yl}amino)pyrimidin-4-yl]imidazo[2,1-b][1,3]thiazol-6-yl}benzene-1,4-diol], the IC50 turned out to be 92 nM.
For `COc1cccc(-c2nc3sccn3c2-c2ccnc(N[C@@H]3CCCN(C[C@@H]4COC(C)(C)O4)C3)n2)c1` [Example 146, N-((3R)-1-{[(4R)-2,2-dimethyl-1,3-dioxolan-4-yl]methyl}piper-idin-3-yl)-4-[6-(3-methoxy-phenyl)imidazo[2,1-b][1,3]thiazol-5-yl]pyrimidin-2-amine], the inhibition at 10 µM turned out to be 43%.
As for `COc1cccc(-c2nc3sccn3c2-c2ccnc(N[C@@H]3CCCN(C[C@@H](O)CO)C3)n2)c1` [Example 147, (2R)-3-[(3R)-3-({4-[6-(3-methoxyphenyl)imidazo[2,1-b][1,3]thiazol-5-yl]pyrimidin-2-yl}amino)piperidin-1-yl]propane-1,2-diol], the IC50 was above 3000 nM.
Take `OC[C@H](O)CN1CCC[C@@H](Nc2nccc(-c3c(-c4cccc(O)c4)nc4sccn34)n2)C1` [Example 148, (2R)-3-[(3R)-3-({4-[6-(3-hydroxyphenyl)imidazo[2,1-b][1,3]thiazol-5-yl]pyrimidin-2-yl}amino)piperidin-1-yl]propane-1,2-diol]: the IC50 is above 3000 nM.
Still for that read-out and setting: next, `COc1ccc(S(=O)(=O)N2CCC[C@@H](Nc3nccc(-c4c(-c5cccc(OC)c5)nc5sccn45)n3)C2)cc1` [Example 149, 4-[6-(3-methoxyphenyl)imidazo[2,1-b][1,3]thiazol-5-yl]-N-{(3R)-1-[(4-methoxyphenyl)sulfonyl]piperidin-3-yl}pyrimidin-2-amine]: 188 nM.
The same measure, in the same setting: next, `O=S(=O)(c1ccc(O)cc1)N1CCC[C@@H](Nc2nccc(-c3c(-c4cccc(O)c4)nc4sccn34)n2)C1` [Example 150, 3-{5-[2-({(3R)-1-[(4-hydroxyphenyl)sulfonyl]piperidin-3-yl}amino)pyrimidin-4-yl]imidazo[2,1-b][1,3]thiazol-6-yl}phenol]: 9 nM.
On the same count and under the same terms, next, `COc1cccc(-c2nc3sccn3c2-c2ccnc(N[C@@H]3CCCN(S(C)(=O)=O)C3)n2)c1` [Example 151, 4-[6-(3-methoxyphenyl)imidazo[2,1-b][1,3]thiazol-5-yl]-N-[(3R)-1-(methylsulfonyl)piperidin-3-yl]pyrimidin-2-amine]: 850 nM.

A word on the IC50: it is the concentration that gives 50% inhibition. For orientation: inhibition means the share of the control response that was lost under treatment.

For the origin of these results see US7501430B2 (ArQule, Inc., priority 2006, dated 2009).
